Results as given in US20240324594A1, “Method for Controlling Diamide Resistant Pests and Compounds Therefor” (priority 2021, published 2024).

Columns and labels:
[1] = tested on: Plutella xylostella (Diamond back moth) ryanodine receptor, containing the G4946E resistance mutation; assay: In vitro calcium fluorescence assay (Fluo-8 NW, FDSS) in human embryonic kidney cells expressing the ryanodine receptor; assay type: cell-based; conditions: HEK cells expressing P. xylostella RyR G4946E; EC50 normalized against in-assay reference cyantraniliprole; ratio <=1 means equally or more active
Description: Human embryonic kidney cells expressing the Plutella xylostella (Diamond back moth) ryanodine receptor, containing the G4946E resistance mutation, are loaded with Fluo-8 No Wash (NW) calcium-sensitive dye which responds by fluorescence to a change in intracellular calcium (e.g. stimulated by activation of ryanodine receptor). Test compounds are added in 10 rates to a 384-well plate containing dye-loaded cells and the fluorescent signal is measured using the Hamamatsu FDSS (Functional Drug Screening system). Dose-response curves are plotted to estimate the EC50. EC50 are normalized against an in-assay reference standard (cyantraniliprole) to address inter-assay variability. The ratio for a given compound is then obtained by the following formula: REC50=EC50 (compound)/EC50 (cyantraniliprole).

[2] = tested on: Resistant Plutella xylostella R1 (G4946E resistance mutation); assay: Resistant Plutella xylostella R1 (Diamond back moth) larvicide L3, feeding/contact; assay type: in vivo; conditions: CTPR used as standard
Description: Resistant Plutella xylostella R1 (Diamond back moth) larvicide L3, feeding/contact Chinese cabbage plants were sprayed with diluted test solutions in an application chamber. Cut off leaves were placed into petri dishes with wetted filter paper and infested 1 day after application with 10 L3 multi-resistant Plutella xylostella larvae having the G4946E resistance mutation. Samples were assessed 4 days after infestation for mortality and growth regulation. CTPR was used as standard and a resistance factor of 146 was obtained for this strain.
Plutella xylostella resistant strain R1 originally collected from Taiwan in 2012 that carries the RyR mutation G4946E conferring resistance to diamides. The strain is reared on cabbage plants (Brassica oleracea) and selected approximately every two weeks with chlorantraniliprole.

[3] = tested on: Resistant Plutella xylostella R4 (RyR mutation G4946E); assay: Resistant Plutella xylostella R4 (Diamond back moth) larvicide L1, feeding/contact; assay type: in vivo; conditions: CTPR used as standard
Description: Resistant Plutella xylostella R4 (Diamond back moth) larvicide L1, feeding/contact 24-well microtiter plates with artificial diet were treated with aqueous test solutions prepared from 10,000 ppm DMSO stock solutions by pipetting. After drying, around 30 Plutella eggs were pipetted through a plastic stencil onto a gel blotting paper and the plate was closed with it. The samples were assessed for mortality in comparison to untreated samples 8 days after infestation. CTPR was used as standard and a resistance factor of 242 was obtained for this strain
Plutella xylostella resistant strain R4 originated in the lab in 2021 from crossing the R1 strain with a lab-reared susceptible P. xylostella strain (SUS). R4 can be reared and tested on artificial diet and also carries the RyR mutation G4946E conferring resistance to diamides. The strain is selected approximately every two weeks with chlorantraniliprole.

melting point [°C]	SMILES	REC50 = EC50 (compound)/EC50 (cyantraniliprole) [1]	also measured
142.2 to 160.3	Cc1cc2nn[nH]c2c(C(N)=O)c1NC(=O)c1cc(OCC(F)(F)F)nn1-c1ncccc1Cl		
233 to 240	Cc1cc2cn[nH]c2c(C(N)=O)c1NC(=O)c1cc(Cn2nnc(C(F)(F)F)n2)nn1-c1ncccc1Cl		
> 250	Cc1nc2cc(C)c(NC(=O)c3cc(Br)nn3-c3ncccc3Cl)c(C(N)=O)c2o1		
240 to 245	Cc1cc2c(c(C(N)=O)c1NC(=O)c1cc(OCC(F)(F)F)nn1-c1ncccc1Cl)OC(F)(F)O2		
147.5 to 161.2	Cc1cc2nn[nH]c2c(C(N)=O)c1NC(=O)c1cc(OC(F)F)nn1-c1ncccc1Cl		
	Cc1cc2c(c(C(=O)NC(C)C)c1NC(=O)c1cc(C(F)(F)F)nn1-c1ncccc1Cl)OC(F)(F)O2 [2-(3-chloro-2-pyridyl)-N-[2,2-difluoro-4-(isopropylcarbamoyl)-6-methyl-1,3-benzodioxol-5-yl]-5-(trifluoromethyl)pyrazole-3-carboxamide]	7.27	
	CNC(=O)c1c(NC(=O)c2cc(C(F)(F)F)nn2-c2ncccc2Cl)c(C)cc2c1OC(F)(F)O2 [2-(3-chloro-2-pyridyl)-N-[2,2-difluoro-6-methyl-4-(methylcarbamoyl)-1,3-benzodioxol-5-yl]-5-(trifluoromethyl)pyrazole-3-carboxamide]	4.65	
	CNC(=O)c1c(NC(=O)c2cc(Cn3cc(C(F)(F)F)nn3)nn2-c2ncccc2Cl)c(C)cc2c1OC(F)(F)O2 [2-(3-chloro-2-pyridyl)-N-[2,2-difluoro-6-methyl-4-(methylcarbamoyl)-1,3-benzodioxol-5-yl]-5-[[4-(trifluoromethyl)triazol-1-yl]methyl]pyrazole-3-carboxamide]	2.55	
	CNC(=O)c1c(NC(=O)c2cc(Cn3ncc(C(F)(F)F)n3)nn2-c2ncccc2Cl)c(C)cc2c1OC(F)(F)O2 [2-(3-chloro-2-pyridyl)-N-[2,2-difluoro-6-methyl-4-(methylcarbamoyl)-1,3-benzodioxol-5-yl]-5-[[4-(trifluoromethyl)triazol-2-yl]methyl]pyrazole-3-carboxamide]	6.26	
	CNC(=O)c1c(NC(=O)c2cc(Cn3nnc(C(F)(F)F)n3)nn2-c2ncccc2Cl)c(C)cc2c1OC(F)(F)O2 [2-(3-chloro-2-pyridyl)-N-[2,2-difluoro-6-methyl-4-(methylcarbamoyl)-1,3-benzodioxol-5-yl]-5-[[5-(trifluoromethyl)tetrazol-2-yl]methyl]pyrazole-3-carboxamide]	5.77	
	CNC(=O)c1cc(Cl)cc(C)c1NC(=O)c1cc(Br)nn1-c1ncccc1Cl [CTPR, chlorantraniliprole]		resistance factor obtained for strain R1 [2]: 146; resistance factor obtained for strain R4 [3]: 242
	Cc1cc2c(c(C(N)=O)c1NC(=O)c1cc(C(F)(F)F)nn1-c1ncccc1Cl)OC(F)(F)O2 [Compound P19, N-(4-carbamoyl-2,2-difluoro-6-methyl-1,3-benzodioxol-5-yl)-2-(3-chloro-2-pyridyl)-5-(trifluoromethyl)pyrazole-3-carboxamide]	0.50	
	Cc1cc2c(c(C(N)=O)c1NC(=O)c1cc(Cn3ncc(C(F)(F)F)n3)nn1-c1ncccc1Cl)OC(F)(F)O2 [Compound P21, N-(4-carbamoyl-2,2-difluoro-6-methyl-1,3-benzodioxol-5-yl)-2-(3-chloro-2-pyridyl)-5-[[4-(trifluoromethyl)triazol-2-yl]methyl]pyrazole-3-carboxamide]	0.55	
	Cc1cc2c(c(C(N)=O)c1NC(=O)c1cc(Cn3cc(C(F)(F)F)nn3)nn1-c1ncccc1Cl)OC(F)(F)O2 [Compound P22, N-(4-carbamoyl-2,2-difluoro-6-methyl-1,3-benzodioxol-5-yl)-2-(3-chloro-2-pyridyl)-5-[[4-(trifluoromethyl)triazol-1-yl]methyl]pyrazole-3-carboxamide]	0.91	
	Cc1cc2c(c(C(N)=O)c1NC(=O)c1cc(Cn3nnc(C(F)(F)F)n3)nn1-c1ncccc1Cl)OC(F)(F)O2 [Compound P24, N-(4-carbamoyl-2,2-difluoro-6-methyl-1,3-benzodioxol-5-yl)-2-(3-chloro-2-pyridyl)-5-[[5-(trifluoromethyl)tetrazol-2-yl]methyl]pyrazole-3-carboxamide]	0.34	
